We go through 21 compounds from patent US12246002B2, “Pharmaceutical composition for prevention or treatment of circadian rhythm-related disorders, comprising oxyiminomethylbenzene derivative as active ingredient” (KOREA UNIVERSITY RESEARCH AND BUSINESS FOUNDATION, priority 2018, dated 2025).

The test system of series [1] is CLOCK:BMAL1 dimer. The series can be described thus: E-box-LUC reporter assay of transcriptional activity of CLOCK:BMAL1 dimer in NIH-3T3 fibroblast line. In kind it is cell-based. The following applies: NIH-3T3 E-box-LUC cells; for Max (%) maximum activity of E-box-LUC reporter compared to the control group: four parameter logistic fit, DMSO control. Here is the method:
The NIH-3T3 fibroblast line (Non-patent document 6) expressing the E-box-LUC reporter was used to evaluate the effect of the oxyiminomethylbenzene derivative on the transcriptional activity of the CLOCK:BMAL1 dimer mediated by E-box. Reporter-expressing fibroblast line was maintained and cultured in an incubator in a humidified state at 5% carbon dioxide and 37 degrees Celsius, using Dulbecco's modified eagles medium (Invitrogen) having 10% fetal bovine serum, 1% penicillin/streptomycin (Invitrogen) and 1% L-glutamine added thereto.
(§1) The reporter-expressing cell line was dispensed and cultured in a 48-well culture plate 24 hours before compound treatment. The cultured cells were finally treated with a compound to a concentration of 0.1, 0.3, 1.0, 3.0, 10, 30 or 100 μM. As a control group (0 μM), cells treated with the same amount of dimethyl sulfoxide (DMSO) were used. After 36 hours elapsed after treatment of the compound, the cells were washed twice with 1× D-PBS, and was lysed for 15 minutes using 100 μl of a cell lysis buffer (Promega) per well. After reacting a 20 μl sample of the lysate with the same amount of a luciferase assay reagent (Promega), the luciferase activity was measured using a luminometer (TD-20/20 Luminometer, Turner systems). The measured luciferase activity was corrected based on the protein content of the lysate. The protein content was measured using a Bradford staining reagent from Bio-rad.
(§2) The concentration-response correlation for each derivative was converted to a standard curve using Four Parameter Logistic Equation. The calculation process utilized the statistical analysis function provided by SigmaPlot 10.0 ([…], Systat Software Inc.). Based on the concentration-response curve, the maximum activity (Max) and EC50 values of each derivative were calculated and input in [Table 1]. When the compound induces cell death, cytotoxicity (Tox.) was input to the EC50 field. The concentration-reaction correlation curves of compounds of Chemical Formula 8-9, 9-9, 8-10 and 9-10 as a representative example are shown in FIG. 1.
For orientation: A reporter such as luciferase makes a cellular process visible.

The subject of series [2] is NIH-3T3 fibroblast line. The series can be described thus: Cytotoxicity (cell death) seen in the E-box-LUC reporter assay. In kind it is cell-based. As to conditions: for cytotoxicity (Tox.) input to the EC50 field when the compound induces cell death: NIH-3T3 E-box-LUC cells, 0.1-100 μM, 36 hours. Here is the method:
as §1, §2

In series [3] the test system is PER2-LUC fusion protein. The series can be described thus: Circadian rhythm expression of PER2-LUC fusion protein in PER2-LUC knock-in fibroblasts (real-time bioluminescence, Cosinor analysis). The class given is cell-based, mouse. As to conditions: 20 μM, PER2-LUC KI fibroblasts, FIG. 3; for amplitude of the circadian rhythm expression of the PER2-LUC fusion protein: DEX synchronized, up to 5 days. Here is the method: The effects of the compounds (8-9 and 8-10) prepared in Example 1 on the circadian rhythm expression of the molecular biological clock whose the cells are expressed through inhibition of CRY and enhancement of transcriptional activity of CLOCK:BMAL1 were evaluated. To this end, a mutant fibroblast line (PER2-LUC knock-in fibroblast) was used in which a PER2-LUC fusion protein is expressed via linking the luciferase gene from the position where the stop codon of the PER2 gene is located. The cell line was established from lung tissue of PER2-LUC knock-in mutant mice (Non-patent document 31) 1 week after birth. PER2-LUC knock-in (KI) fibroblasts was maintained and cultured in the incubator under a humidified state at 5% carbon dioxide and 37 degrees Celsius using Dulbecco's modified Eagle medium supplemented with 10% serum, 1% penicillin/streptomycin, and 1% L-glutamine.
After treating the cultured cells with 200 nM dexamethasone (DEX) for 2 hours for synchronization, the DEX was replaced with a medium including the substrate of luciferase that is, luciferin (final concentration 0.1 mM) with 20 μM of the compound of Chemical Formula 8-9 or 8-10. As a control group, cells (VEH) treated with the same amount of dimethyl sulfoxide instead of the compound were used. As another comparative group, the cells treated with a 2-ethoxypropionic acid-based CRY inhibitor (Non-patent document 6), that is, KS15 (final concentration 20 μM) was used. The control and the KS15-treated cells were also replaced with a medium including luciferin of the same concentration.
Bioluminescence signals generated from cells cultured in a medium including the compound and luciferin were continuously measured for up to 5 days at 10-minute intervals using a real-time bioluminescence measurement equipment (Kronos-DIO, ATTO). The results were identified through statistical detrending. The circadian rhythm expression pattern of the PER2-LUC fusion protein was analyzed using the Cosinor analysis program (free distribution on http://www.circadian.org) to determine the amplitude, period, and robustness of the periodicity. Based on the results obtained through 4 replicate experiments, the statistical significance of the change according to compound treatment was verified.

By EC50 is commonly meant the midpoint of the concentration-response curve. A lower EC50 goes with greater potency. Compound `COC(=O)COc1cccc(C(C)=NOCc2cccc(C(F)(F)F)c2)c1` [Compound 8-1, methyl 2-{3-[N-{[3-(trifluoromethyl)phenyl]methoxy}ethanimidoyl]phenoxy}acetate] returned an EC50 in series [1] (0.1-100 μM, 36 hours) of 27.4 µM.

On to `COC(=O)COc1cccc(C(C)=NOCc2ccc(Br)cc2)c1` [Compound 8-5, methyl 2-(3-{N-[(4-bromophenyl)methoxy]ethanimidoyl}phenoxy)acetate], for which the “cytotoxicity (Tox.) input to the EC50 field when the compound induces cell death” value (“cytotoxicity (Tox.) input” for short) in series [2] is on record as “(Tox.)”. For the compound `CC(=NOCc1ccc(Br)cc1)c1cccc(OCC(=O)O)c1` [Compound 8-6, (3-{N-[(4-bromophenyl)methoxy]ethanimidoyl}phenoxy)acetic acid], the “Max (%) maximum activity of E-box-LUC reporter compared to the control group” value (“Max (%) maximum activity” below) in series [1] (0.1-100 μM, 36 hours) was 123.78%. In addition, the “cytotoxicity (Tox.) input” value in series [2] was “(Tox.)”.

For the compound `CC(=NOCc1ccc(Br)cc1)c1cccc(OCC(=O)NCc2ccccn2)c1` [Compound 8-7, 2-{3-[N-(4-bromophenyl)methoxyethanimidoyl]phenoxy}-N-[(pyridin-2-yl)methyl]acetamide], in series [1] (0.1-100 μM, 36 hours), the “Max (%) maximum activity” value is 129.69%. As to `CC(=NOCc1ccc(Br)cc1)c1cccc(OCC(=O)NCCc2ncc[nH]2)c1` [Compound 8-8, 2-{3-[N-(4-bromophenyl)methoxyethanimidoyl]phenoxy}-N-[2-(1H-imidazol-2-yl)ethyl]acetamide], in series [1] (0.1-100 μM, 36 hours), the “Max (%) maximum activity” value amounted to 121.10%. For the same compound, in series [2], the “cytotoxicity (Tox.) input” value was “(Tox.)”. On to `COC(=O)COc1cccc(C(C)=NOCc2ccc([N+](=O)[O-])cc2)c1` [Compound 8-9, methyl 2-(3-{N-[(4-nitrophenyl)methoxy]ethanimidoyl}phenoxy)acetate], for which the “activity of E-box-LUC (concentration-response, FIG. 1)” value in series [1] is “increase the activity of E-box-LUC in a concentration-dependent manner”. In series [2] (at up to 100 μM), the cytotoxicity entry is listed as “No significant cytotoxicity”. For the same compound, in series [3], the “amplitude of the circadian rhythm expression of the PER2-LUC fusion protein” value was “increases the amplitude of the circadian rhythm expression of the PER2-LUC fusion protein at a significant level”, the “period of the circadian rhythm expression of the PER2-LUC fusion protein” value is “not affecting the period” and the “robustness of the circadian rhythm expression of the PER2-LUC fusion protein” value was “not affecting the period or robustness”. With `CC(=NOCc1ccc([N+](=O)[O-])cc1)c1cccc(OCC(=O)O)c1` [Compound 8-10, (3-{N-[(4-nitrophenyl)methoxy]ethanimidoyl}phenoxy)acetic acid], in series [1], the “activity of E-box-LUC (concentration-response, FIG. 1)” value is given as “increase the activity of E-box-LUC in a concentration-dependent manner”. Besides, in series [3], the “amplitude of the circadian rhythm expression of the PER2-LUC fusion protein” value is on record as “increases the amplitude of the circadian rhythm expression of the PER2-LUC fusion protein at a significant level”, the “period of the circadian rhythm expression of the PER2-LUC fusion protein” value was “not affecting the period” and the “robustness of the circadian rhythm expression of the PER2-LUC fusion protein” value is recorded as “not affecting the period or robustness”. Consider `CC(=NOCc1ccc(S(C)(=O)=O)cc1)c1cccc(OCC(=O)O)c1` [Compound 8-12, {3-[N-{[4-(methanesulfonyl)phenyl]methoxy}ethanimidoyl]phenoxy}acetic acid], for which the “Max (%) maximum activity” value in series [1] (0.1-100 μM, 36 hours) worked out at 98.71%. `COC(=O)COc1cccc(C(C)=NOCc2ccc(F)cc2)c1` [Compound 8-13]: the “Max (%) maximum activity” value in series [1] (0.1-100 μM, 36 hours) worked out at 119.93%. Also, the “cytotoxicity (Tox.) input” value in series [2] is reported as “(Tox.)”. For the compound `COC(=O)COc1ccc(C(C)=NOCc2cccc(C(F)(F)F)c2)cc1` [Compound 9-1, methyl 2-{4-[N-{[3-(trifluoromethyl)phenyl]methoxy}ethanimidoyl]phenoxy}acetate], the “Max (%) maximum activity” value in series [1] (0.1-100 μM, 36 hours) was determined as 107.89%. In the case of `CC(=NOCc1cccc(C(F)(F)F)c1)c1ccc(OCC(=O)O)cc1` [Compound 9-2, {4-[N-{[3-(trifluoromethyl)phenyl]methoxy}ethanimidoyl]phenoxy}acetic acid], the “Max (%) maximum activity” value in series [1] (0.1-100 μM, 36 hours) was 115.15%. On to `COC(=O)COc1ccc(C(C)=NOCc2ccc(OC)cc2)cc1` [Compound 9-3, methyl 2-(4-{N-[(4-methoxyphenyl)methoxy]ethanimidoyl}phenoxy)acetate], for which, in series [1] (0.1-100 μM, 36 hours), the “Max (%) maximum activity” value amounted to 103.87%. Still for that read-out and setting: in the case of `COc1ccc(CON=C(C)c2ccc(OCC(=O)O)cc2)cc1` [Compound 9-4, (4-{N-[(4-methoxyphenyl)methoxy]ethanimidoyl}phenoxy)acetic acid] it was 102.65%; in that of `COC(=O)COc1ccc(C(C)=NOCc2ccc(Br)cc2)cc1` [Compound 9-5, methyl 2-(4-{N-[(4-bromophenyl)methoxy]ethanimidoyl}phenoxy)acetate], 111.88%. Still for that read-out and setting: in the case of `CC(=NOCc1ccc(Br)cc1)c1ccc(OCC(=O)O)cc1` [Compound 9-6, (4-{N-[(4-bromophenyl)methoxy]ethanimidoyl}phenoxy)acetic acid] it was 106.70%. In the case of `CC(=NOCc1ccc(Br)cc1)c1ccc(OCC(=O)NCc2ccccn2)cc1` [Compound 9-7, 2-{4-[N-(4-bromophenyl)methoxyethanimidoyl]phenoxy}-N-[(pyridin-2-yl)methyl]acetamide], in series [1] (0.1-100 μM, 36 hours), the “Max (%) maximum activity” value amounted to 135.47%. On the same count and under the same terms, in the case of `CC(=NOCc1ccc(Br)cc1)c1ccc(OCC(=O)NCCc2ncc[nH]2)cc1` [Compound 9-8, 2-{4-[N-(4-bromophenyl)methoxyethanimidoyl]phenoxy}-N-[2-(1H-imidazol-2-yl)ethyl]acetamide] it was 120.89%. The same measure, in the same setting: in the case of `COC(=O)COc1ccc(C(C)=NOCc2ccc([N+](=O)[O-])cc2)cc1` [Compound 9-9, methyl 2-(4-{N-[(4-nitrophenyl)methoxy]ethanimidoyl}phenoxy)acetate] it was 113.52%; in that of `CC(=NOCc1ccc([N+](=O)[O-])cc1)c1ccc(OCC(=O)O)cc1` [Compound 9-10, (4-{N-[(4-nitrophenyl)methoxy]ethanimidoyl}phenoxy)acetic acid], 108.43%; in that of `COC(=O)COc1ccc(C(C)=NOCc2ccc(S(C)(=O)=O)cc2)cc1` [Compound 9-11, methyl 2-{4-[N-{[4-(methanesulfonyl)phenyl]methoxy}ethanimidoyl]phenoxy}acetate], 100.39%. On the same count and under the same terms, in the case of `CC(=NOCc1ccc(S(C)(=O)=O)cc1)c1ccc(OCC(=O)O)cc1` [Compound 9-12, {4-[N-{[4-(methanesulfonyl)phenyl]methoxy}ethanimidoyl]phenoxy}acetic acid] it was 111.38%.
